Values joined by “and” are separate entries in the source; they are usually repeats but may differ in a detail not shown here. Identical values can stand only once. “Also recorded” adds a separate entry of the source.
What was measured:
[1] = target: T1, 15N-labeled ING3 PHD finger (Homo sapiens, UniProt Q9NXR8); assay: 1H-15N HSQC NMR chemical shift perturbation; assay type: binding; details: 0.5 mM ING3 PHD, 20 mM Tris-HCl pH 6.8, 150 mM NaCl, 10 mM DTT, 25 °C; protein:peptide up to 1:2.61
T1 construct: The ING3 PHD finger region (residues 360–409) was amplified using PCR; GST (N, cleaved yes); made in house; host or cells: Escherichia coli Rosetta 2(DE3)pLysS
Experimental: Chemical shift perturbation experiments were conducted using 0.5 mM uniformly ^15N-labeled ING3 PHD finger in buffer containing 20 mM Tris-HCl, pH 6.8, 150 mM NaCl, 10 mM DTT, and 10% D2O. Titration mixtures of the ING3PHD protein and each of the modified histone peptides were prepared at concentration ratios of 1:0, 1:0.13, 1:0.26, 1:0.52, 1:1.3, and 1:2.61 in a volume of 35 μl. These mixtures were then transferred into 1.7-mm NMR tubes (Bruker).
Two-dimensional ^15N HSQC (heteronuclear single quantum coherence) experiments for all samples were run at 25 °C on a 600 MHz Bruker AVANCE III spectrometer equipped with a z-gradient 1.7-mm TCI probe at the National Magnetic Resonance Facility at Madison (NMRFAM) using the NMRBot software ([57]). The NMR data were collected with 1024 × 128 complex data points along the ^1H and ^15N dimensions, with acquisition times of 104 and 81 ms, respectively, using eight scans per free induction decay. Normalized chemical shift changes were calculated using Equation 2, [drawing 2] where ΔδH and ΔδN are the proton and nitrogen change in chemical shift in ppm, respectively.

[2] = target: T2, ING3 PHD finger (Homo sapiens, UniProt Q9NXR8); assay: Tryptophan fluorescence titration of ING3 PHD finger with histone peptides; assay type: binding; details: 25 °C, 100 mM NaPO4 pH 7.5, 150 mM NaCl, 1 mM DTT, 10 μM ING3 PHD; average of three titrations; read-out: Trp fluorescence KD
T2 construct: The ING3 PHD finger region (residues 360–409) was amplified using PCR; GST (N, cleaved yes); made in house; host or cells: Escherichia coli Rosetta 2(DE3)pLysS
Experimental: Tryptophan fluorescence spectra of samples in tryptophan fluorescence buffer (100 mM NaPO4, pH 7.5, 150 mM NaCl, and 1 mM DTT) were collected at 25 °C using a Cary Eclipse fluorescence spectrometer (Varian). The samples contained 10 μM ING3 PHD finger protein and progressively increasing concentrations of histone H3 and H4 peptides. The 12- and 14-mer unlabeled histone tail peptides with an amidated C terminus and specific methylation modifications (H3K4me3, H3K4me2, H3K4me1, H3 unmodified, and H4 unmodified) were synthesized by the Peptide Core Facility at the University of Colorado at Denver. After excitation at 295 nm, emission spectra were recorded between 305 and 405 nm with 0.5-nm increments and at a 1-s integration time, averaging over three scans. Each titration experiment was repeated three times, and the average KD values were calculated using quadratic Equation 1, [drawing 1] where Fi is the fluorescence change; Fs is the fluorescence change at saturation of XT (the total protein concentration); and YT is the peptide concentration.

[3] = target: T3, wild-type ING3 PHD finger (Homo sapiens, UniProt Q9NXR8); assay: ITC of wild-type ING3 PHD finger with histone peptides; assay type: binding; details: for Kd / ITC KD: wild-type ING3 PHD, 5 °C, 20 mM NaH2PO4 pH 7.0, 150 mM NaCl, triplicate, non-binding in duplicate
T3 construct: The ING3 PHD finger region (residues 360–409) was amplified using PCR; GST (N, cleaved yes); made in house; host or cells: Escherichia coli Rosetta 2(DE3)pLysS
Experimental: (§1) ITC measurements were recorded at 5 °C using a MicroCal iTC200 (GE Healthcare) as described previously ([55]). The wild-type and mutant ING3PHD proteins and histone peptide samples were prepared in a 20 mM NaH2PO4, pH 7.0, and 150 mM NaCl ITC buffer by dialysis for 24–48 h. Titration experiments were set up for optimal heat of binding reactions by using 100–200 μM ING3PHD in the sample cell, and between 1 and 5 mM histone peptide in the injection syringe. Control experiments were performed under identical conditions to determine the heat of dilution of the titrant peptides into the experimental buffer. This was subtracted from the experimental data as part of data analysis. Data were analyzed using the software ORIGIN 7.0 (OriginLab Corp.).

[4] = target: T4, ING3 PHD P43A (Homo sapiens, UniProt Q9NXR8, P397A); assay: ITC of ING3 PHD mutant with H3K4me3 peptide; assay type: binding
T4 construct: The ING3 PHD finger region (residues 360–409) was amplified using PCR; GST (N, cleaved yes); made in house; host or cells: Escherichia coli Rosetta 2(DE3)pLysS
Source text: (§2) The ING3 PHD finger region (residues 360–409) was amplified using PCR and cloned into the pDEST15 vector encoding an N-terminal glutathione transferase (GST) tag using the Gateway cloning technology (Invitrogen) as described previously ([55]). ING3PHD proteins with single mutations at W31A, W47A, S15A, P43A, Y8A, and D26H were generated using the QuikChange® mutagenesis procedure (Stratagene) as described previously ([56]). The DNA sequence for wild-type and mutant proteins was verified at the University of Vermont DNA facility, and the plasmids were transformed into in Escherichia coli Rosetta^TM 2(DE3)pLysS competent cells (Novagen) for protein expression.
as §1, with “Corp.). All experiments where binding occurred were performed in triplicate, whereas non-binding experiments were performed in duplicate.” for “Corp.).”

[5] = target: T5, ING3 PHD D26H (Homo sapiens, UniProt Q9NXR8, D380H); assay: ITC of ING3 PHD mutant with H3K4me3 peptide; assay type: binding; details: 5 °C, pH 7.0, triplicate
T5 construct: The ING3 PHD finger region (residues 360–409) was amplified using PCR; GST (N, cleaved yes); made in house; host or cells: Escherichia coli Rosetta 2(DE3)pLysS
Source text: as §2
as §1, with “Corp.). All experiments where binding occurred were performed in triplicate, whereas non-binding experiments were performed in duplicate.” for “Corp.).”

[6] = target: T6, ING3 PHD S15A (Homo sapiens, UniProt Q9NXR8, S369A); assay: ITC of ING3 PHD mutant with H3K4me3 peptide; assay type: binding
T6 construct: The ING3 PHD finger region (residues 360–409) was amplified using PCR; GST (N, cleaved yes); made in house; host or cells: Escherichia coli Rosetta 2(DE3)pLysS
Source text: as §2
as §1, with “Corp.). All experiments where binding occurred were performed in triplicate, whereas non-binding experiments were performed in duplicate.” for “Corp.).”

[7] = target: T7, ING3 PHD Y8A (Homo sapiens, UniProt Q9NXR8, Y362A); assay: ITC of ING3 PHD mutant with H3K4me3 peptide; assay type: binding; details: 5 °C, pH 7.0, triplicate
T7 construct: The ING3 PHD finger region (residues 360–409) was amplified using PCR; GST (N, cleaved yes); made in house; host or cells: Escherichia coli Rosetta 2(DE3)pLysS
Source text: as §2
as §1, with “Corp.). All experiments where binding occurred were performed in triplicate, whereas non-binding experiments were performed in duplicate.” for “Corp.).”

[8] = target: T8, ING3 PHD W47A (Homo sapiens, UniProt Q9NXR8, W401A); assay: ITC of ING3 PHD mutant with H3K4me3 peptide; assay type: binding; details: 5 °C, pH 7.0, triplicate
T8 construct: The ING3 PHD finger region (residues 360–409) was amplified using PCR; GST (N, cleaved yes); made in house; host or cells: Escherichia coli Rosetta 2(DE3)pLysS
Source text: as §2
as §1, with “Corp.). All experiments where binding occurred were performed in triplicate, whereas non-binding experiments were performed in duplicate.” for “Corp.).”

[9] = target: T9, ING3 PHD W31A (Homo sapiens, UniProt Q9NXR8, W385A); assay: ITC of ING3 PHD mutant with H3K4me3 peptide; details: 5 °C, pH 7.0, non-binding in duplicate
T9 construct: The ING3 PHD finger region (residues 360–409) was amplified using PCR; GST (N, cleaved yes); made in house; host or cells: Escherichia coli Rosetta 2(DE3)pLysS
Source text: as §2
as §1, with “This was subtracted from the experimental data as part of data analysis.” left out, “Corp.). […]” for “Corp.).”

T3 sequence (Q9NXR8 360-409): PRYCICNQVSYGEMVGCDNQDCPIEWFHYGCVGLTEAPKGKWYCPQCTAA
T2 sequence (Q9NXR8 360-409): as above
T1 sequence (Q9NXR8 360-409): as above
T6 sequence (Q9NXR8 360-409 S369A): as the sequence (Q9NXR8 360-409) above, with S10A counted along it
T4 sequence (Q9NXR8 360-409 P397A): as the sequence (Q9NXR8 360-409) above, with P38A counted along it
T9 sequence (Q9NXR8 360-409 W385A): as the sequence (Q9NXR8 360-409) above, with W26A counted along it
T5 sequence (Q9NXR8 360-409 D380H): as the sequence (Q9NXR8 360-409) above, with D21H counted along it
T7 sequence (Q9NXR8 360-409 Y362A): as the sequence (Q9NXR8 360-409) above, with Y3A counted along it
T8 sequence (Q9NXR8 360-409 W401A): as the sequence (Q9NXR8 360-409) above, with W42A counted along it

Kd [2] [µM] | Kd [3] [µM] | Compound | chemical shift perturbations in 1H-15N HSQC upon addition of peptide [1] | further results
132 ± 13.5 | 181 ± 19.2 | C[C@H](N)C(=O)N[C@@H](CCCNC(=N)N)C(=O)N[C@H](C(=O)N[C@@H](CCCCN)C(=O)N[C@@H](CCC(N)=O)C(=O)N[C@H](C(=O)N[C@@H](C)C(=O)N[C@@H](CCCNC(=N)N)C(=O)N[C@@H](CCCCN)C(=O)N[C@@H](CO)C(=O)N[C@H](C(=O)NCC(N)=O)[C@@H](C)O)[C@@H](C)O)[C@@H](C)O [H3 unmodified] | Chemical shift perturbations were induced | 
21.4 ± 3.51 | 23.2 ± 0.8 | CNCCCC[C@H](NC(=O)[C@@H](NC(=O)[C@H](CCCNC(=N)N)NC(=O)[C@H](C)N)[C@@H](C)O)C(=O)N[C@@H](CCC(N)=O)C(=O)N[C@H](C(=O)N[C@@H](C)C(=O)N[C@@H](CCCNC(=N)N)C(=O)N[C@@H](CCCCN)C(=O)N[C@@H](CO)C(=O)N[C@H](C(=O)NCC(N)=O)[C@@H](C)O)[C@@H](C)O [H3K4me1] | Chemical shift perturbations were induced | 
4.05 ± 0.53 | 2.99 ± 0.33 | C[C@H](N)C(=O)N[C@@H](CCCNC(=N)N)C(=O)N[C@H](C(=O)N[C@@H](CCCCN(C)C)C(=O)N[C@@H](CCC(N)=O)C(=O)N[C@H](C(=O)N[C@@H](C)C(=O)N[C@@H](CCCNC(=N)N)C(=O)N[C@@H](CCCCN)C(=O)N[C@@H](CO)C(=O)N[C@H](C(=O)NCC(N)=O)[C@@H](C)O)[C@@H](C)O)[C@@H](C)O [H3K4me2] | Chemical shift perturbations were induced | 
0.63 ± 0.11 | 0.93 ± 0.04 | C[C@H](N)C(=O)N[C@@H](CCCNC(=N)N)C(=O)N[C@H](C(=O)N[C@@H](CCCC[N+](C)(C)C)C(=O)N[C@@H](CCC(N)=O)C(=O)N[C@H](C(=O)N[C@@H](C)C(=O)N[C@@H](CCCNC(=N)N)C(=O)N[C@@H](CCCCN)C(=O)N[C@@H](CO)C(=O)N[C@H](C(=O)NCC(N)=O)[C@@H](C)O)[C@@H](C)O)[C@@H](C)O [H3K4me3] | Chemical shift perturbations were induced | Kd ([4]; 5 °C, pH 7.0, triplicate): 2.45 ± 0.27 µM; drop in binding affinity versus WT ([4]; ITC): 2–3 fold; Kd [5]: 1.93 ± 0.26 µM; Kd ([6]; 5 °C, pH 7.0, triplicate): 1.5 ± 0.01 µM; drop in binding affinity versus WT ([6]; ITC): 2–3 fold and 2 fold; Kd [7]: 46 ± 2.99 µM; Kd [8]: 48.31 ± 0.23 µM; association stronger than with the unmodified histone H3 ([3]; abstract, method not specified (Trp fluorescence and ITC)): about 200 fold; ITC KD [9]: no recognition of this ligand; also recorded: No binding
 |  | GKGGKGLGKGGAKR [H4 unmodified, unmodified histone H4 tail peptide residues 4–17, amidated C terminus] | No significant resonance shifts | ITC KD [3]: No binding was observed; ITC KD ([3]; listed as H4 unmodified(4–17)): No binding

From article PMC5000080, “Mechanism of Histone H3K4me3 Recognition by the Plant Homeodomain of Inhibitor of Growth 3” (The Journal of Biological Chemistry, 2016)
